According to patent publication US5770687A, “Comformationally constrained backbone cyclized somatostatin analogs” (Peptor Limited, priority 1996, dated 1998):
Where two headings read alike, the source gives them in different places. Peptide text beside a SMILES is read from it.

Assays:
SSTR-1 [1] = target: T1, SSTR-1 (Homo sapiens, UniProt P30872); experiment: Radioligand binding, inhibition of 125I-Tyr11-SRIF binding to cloned SSTR-1
Experimental: (§1) The somatostatin analogs were tested for their potency in inhibition of the binding of ^125 I-Tyr^11 -SRIF (based on the method described by Raynor et. al., Molecular Pharmacology 43, 838-844, 1993) to membrane preparations expressing the transmembranal somatostatin receptors (SSTR-1,2,3,4 or 5). The receptor preparations used for these tests were either from the cloned receptors selectively and stably expressed in Chinese Hamster Ovary (CHO) cells or from cell lines naturally expressing the SSTRs. […] The binding reactions were filtered, the filters were washed and the bound radioactivity was counted in gamma counter. […] In order to validate positive signals of the binding tests, and to eliminate non-specific signals, samples of irrelevant peptides, such as GnRH, that were synthesized and handled using the same procedures, were tested in the same assays as negative control samples.

SSTR-3 [2] = target: T2, SSTR-3 (Homo sapiens, UniProt P32745); experiment: Radioligand binding, inhibition of 125I-Tyr11-SRIF binding to cloned SSTR-3
T2 sequence (P32745 whole entry, species assumed): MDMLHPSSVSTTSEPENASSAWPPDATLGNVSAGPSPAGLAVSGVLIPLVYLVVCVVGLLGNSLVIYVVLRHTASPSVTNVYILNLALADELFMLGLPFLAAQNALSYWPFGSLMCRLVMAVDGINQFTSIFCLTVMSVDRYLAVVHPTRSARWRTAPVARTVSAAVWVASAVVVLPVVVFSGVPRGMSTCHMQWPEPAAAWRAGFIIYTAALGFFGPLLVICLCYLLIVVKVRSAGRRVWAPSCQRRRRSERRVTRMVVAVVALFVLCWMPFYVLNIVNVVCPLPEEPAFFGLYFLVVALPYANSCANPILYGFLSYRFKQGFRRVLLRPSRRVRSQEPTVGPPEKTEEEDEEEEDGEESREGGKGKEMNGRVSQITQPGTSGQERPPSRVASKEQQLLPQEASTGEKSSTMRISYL
Experimental: as §1

SSTR-4 [3] = target: T3, SSTR-4 (Homo sapiens, UniProt P31391); experiment: Radioligand binding, inhibition of 125I-Tyr11-SRIF binding to cloned SSTR-4
T3 sequence (P31391 whole entry, species assumed): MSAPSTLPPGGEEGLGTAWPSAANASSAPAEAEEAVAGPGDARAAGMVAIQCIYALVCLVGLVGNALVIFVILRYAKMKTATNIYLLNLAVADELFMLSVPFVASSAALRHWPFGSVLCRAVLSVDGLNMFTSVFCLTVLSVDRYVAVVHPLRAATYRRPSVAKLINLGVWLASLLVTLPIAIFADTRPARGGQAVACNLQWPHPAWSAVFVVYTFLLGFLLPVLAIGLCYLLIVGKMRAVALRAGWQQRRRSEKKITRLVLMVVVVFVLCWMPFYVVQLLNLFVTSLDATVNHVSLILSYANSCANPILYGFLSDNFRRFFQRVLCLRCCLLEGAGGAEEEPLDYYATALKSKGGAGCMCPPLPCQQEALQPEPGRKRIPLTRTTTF
Experimental: as §1

human SSTR-5 [4] = target: T4, human SSTR-5 (Homo sapiens, UniProt P35346); experiment: Radioligand binding, inhibition of 125I-Tyr11-SRIF binding to cloned human SSTR-5
T4 sequence (P35346 whole entry): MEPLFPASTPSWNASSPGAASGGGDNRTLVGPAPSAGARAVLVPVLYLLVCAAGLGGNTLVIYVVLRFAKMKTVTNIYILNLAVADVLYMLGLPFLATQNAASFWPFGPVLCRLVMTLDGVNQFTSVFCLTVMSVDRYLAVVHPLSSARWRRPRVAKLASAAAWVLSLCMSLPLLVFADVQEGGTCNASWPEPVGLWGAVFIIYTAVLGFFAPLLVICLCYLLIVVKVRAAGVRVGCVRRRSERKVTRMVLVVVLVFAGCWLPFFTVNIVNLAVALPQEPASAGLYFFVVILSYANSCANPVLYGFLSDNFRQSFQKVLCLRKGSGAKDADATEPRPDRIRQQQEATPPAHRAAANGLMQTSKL
Experimental: as §1

rat SSTR-5 [5] = target: T5, rat SSTR-5 (Rattus norvegicus, UniProt P30938); experiment: Radioligand binding, inhibition of 125I-Tyr11-SRIF binding to cloned rat SSTR-5
T5 sequence (P30938 1-363): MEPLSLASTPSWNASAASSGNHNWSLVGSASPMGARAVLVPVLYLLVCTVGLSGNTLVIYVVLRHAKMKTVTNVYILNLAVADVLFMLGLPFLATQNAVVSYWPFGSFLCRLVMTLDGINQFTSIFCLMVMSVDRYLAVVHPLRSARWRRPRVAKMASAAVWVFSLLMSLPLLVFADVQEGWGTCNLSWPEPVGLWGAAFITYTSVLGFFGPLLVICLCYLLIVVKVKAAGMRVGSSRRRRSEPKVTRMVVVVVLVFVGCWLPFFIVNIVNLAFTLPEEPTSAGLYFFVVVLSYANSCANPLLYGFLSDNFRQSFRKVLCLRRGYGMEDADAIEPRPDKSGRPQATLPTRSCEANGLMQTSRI
Experimental: as §1

SSTR-4 [6] = target: T3, SSTR-4; conditions: Table 22; known SST analogs, literature values; cited from earlier work
human SSTR-5 [7] = target: T4, human SSTR-5; conditions: Table 22; known SST analogs, literature values; read-out: IC50 value hSSTR 5; cited from earlier work
rat SSTR-5 [8] = target: T5, rat SSTR-5; conditions: Table 22; known SST analogs, literature values; read-out: IC50 value rSSTR 5; cited from earlier work
SSTR-1 [9] = target: T1, SSTR-1; conditions: Table 22; known SST analogs, literature values; cited from earlier work
SSTR-2 = conditions: Table 22; known SST analogs, literature values; cited from earlier work
SSTR-3 [10] = target: T2, SSTR-3; conditions: Table 22; known SST analogs, literature values; cited from earlier work

T1 sequence (P30872 whole entry, species assumed): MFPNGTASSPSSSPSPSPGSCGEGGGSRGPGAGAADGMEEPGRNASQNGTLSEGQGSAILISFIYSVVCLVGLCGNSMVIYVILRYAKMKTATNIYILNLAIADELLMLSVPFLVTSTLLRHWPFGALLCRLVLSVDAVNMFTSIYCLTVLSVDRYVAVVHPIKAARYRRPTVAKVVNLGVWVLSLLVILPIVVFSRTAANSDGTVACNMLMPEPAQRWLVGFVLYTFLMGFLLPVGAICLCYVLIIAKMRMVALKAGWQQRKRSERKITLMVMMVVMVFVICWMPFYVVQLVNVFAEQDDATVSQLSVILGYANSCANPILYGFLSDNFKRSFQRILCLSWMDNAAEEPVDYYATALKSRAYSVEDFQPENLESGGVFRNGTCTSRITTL

IC50 (SSTR-1 [1]) | IC50 (SSTR-3 [2]) | IC50 (SSTR-4 [3]) | IC50 (human SSTR-5 [4]) | IC50 (rat SSTR-5 [5]) | Molecule | IC50 (SSTR-4 [6]) | IC50 (human SSTR-5 [7]) | IC50 (rat SSTR-5 [8]) | IC50 (SSTR-1 [9]) | IC50 (SSTR-2) | IC50 (SSTR-3 [10])
2500 nM | > 1000 nM | > 10000 nM | > 2000 nM | 500 nM | C[C@@H](O)[C@H](NC(=O)CN1CCC(=O)NCCCN(C(=O)[C@H](N)Cc2ccccc2)CC(=O)N[C@@H](Cc2ccccc2)C(=O)N[C@H](Cc2c[nH]c3ccccc23)C(=O)N[C@@H](CCCCN)C(=O)N[C@@H]([C@@H](C)O)C1=O)C(N)=O [PTR 3010] (HELM PEPTIDE1{[dF].[O=C(CN(CCCN[*:3])[*:1])[*:2]].F.[dW].K.T.[O=C(CN(CCC(=O)[*:3])[*:1])[*:2]].T.[am]}$PEPTIDE1,PEPTIDE1,2:R3-7:R3$$$V2.0) | – | – | – | – | – | –
– | – | – | – | – | DPhe^5 -Phe^6 -Phe^7 -DTrp^8 -Lys^9 -Thr^10 -Phe^11 -Thr^12 -NH2 [BIM-23052] | 18 nM | 4 nM | 0.004 nM | – | – | –
– | – | – | – | – | CC(C)[C@@H]1NC(=O)[C@H](CCCCN)NC(=O)[C@@H](Cc2c[nH]c3ccccc23)NC(=O)[C@H](Cc2ccc(O)cc2)NC(=O)[C@@H](NC(=O)[C@H](N)Cc2ccc3ccccc3c2)CSSC[C@@H](C(=O)N[C@H](C(N)=O)[C@@H](C)O)NC1=O [Somatuline] | – | – | 0.5 nM | 800 nM | 2 nM | 6 nM
